This note sets out measurements from PubChem BioAssay (NCI).

SMILES strings stand for the structures. Several values for one entry are separate records, joined by “and”; a condition that tells them apart may be missing. Identical values can stand only once.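 Step 1: Grow cells in 96-well plates. Step 2: Expose to compound for 48 hours at 5 concentrations. Step 3: Interpolate endpoints linearly; if unreached, use highest concentration. GI50 marks 50% less growth. At the TGI there is no net growth.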 Bounds are passed on as bounds.

Among the test systems are CCRF-CEM leukemia; SK-MEL-5 melanoma; HOP-62 NSCLC; IGROV1 ovarian; SF-268 CNS.
Test in all cases: NCI anticancer screen, dose series, 48 h

Take `O=C(CCc1ccc(O)cc1)NCCc1cccc(OCc2ccccc2)c1`: the TGI is 20.7 µM in the test on CCRF-CEM leukemia; 32.7 µM in the test with SK-MEL-5 melanoma; above 100 µM in the test on HOP-62 NSCLC; above 100 µM with IGROV1 ovarian; above 100 µM in the test on SF-268 CNS.

As to `C/C(=N/O)c1cccc(Nc2nc3ccc(Cl)cc3c3[nH]c4ccccc4c23)c1`, the TGI in the test on SK-MEL-5 melanoma came out at 2.56 µM; in the test with HOP-62 NSCLC it was 6.99 µM; in the test on IGROV1 ovarian, 11.5 µM; with SF-268 CNS it was 5.15 µM.

Consider `COc1ccc(C(c2c[nH]c3ccc(Br)cc23)c2c[nH]c3ccc(Br)cc23)cc1`, for which the TGI was 0.436 µM in the test on CCRF-CEM leukemia; 1.12 µM in the test on SK-MEL-5 melanoma; 1.22 µM with HOP-62 NSCLC; 0.803 µM in the test with IGROV1 ovarian; 0.631 µM in the test with SF-268 CNS.

For `CCOC(=O)c1c(-c2ccc(O)c(OC)c2)c(C#N)c(=S)n(C2OC(COC(C)=O)C(OC(C)=O)C(OC(C)=O)C2OC(C)=O)c1-c1ccccc1` (centres undefined), the TGI with CCRF-CEM leukemia is above 100 µM; in the test on SK-MEL-5 melanoma, 65.6 µM and > 100 µM; with HOP-62 NSCLC it was above 100 µM; in the test with IGROV1 ovarian, 55.5 µM and > 100 µM; with SF-268 CNS, above 100 µM. Further, the GI50 in the test with SK-MEL-5 melanoma was 21.9 µM and 47.2 µM; in the test on IGROV1 ovarian it was 18 µM and 79.7 µM.

With `COc1cc(NCc2ccc3nc(OC)c(OC)nc3c2)cc(OC)c1OC`, the TGI with CCRF-CEM leukemia, in the test on SK-MEL-5 melanoma, in the test on HOP-62 NSCLC, with IGROV1 ovarian and in the test on SF-268 CNS was above 100 µM in each case.

Consider `N#Cc1sc2c(c1OC(=O)c1cccs1)c(=O)n(-c1ccccc1)c(=S)n2-c1ccccc1`, for which the TGI in the test on SK-MEL-5 melanoma came out at 29.5 µM; with HOP-62 NSCLC, 49.5 µM; with IGROV1 ovarian, 39.4 µM; in the test on SF-268 CNS, 86 µM.

Regarding `O=C1c2ccccc2C2=Nc3ccncc3CN12`, the TGI in the test on CCRF-CEM leukemia, in the test with SK-MEL-5 melanoma, in the test on HOP-62 NSCLC, with IGROV1 ovarian and in the test with SF-268 CNS was above 100 µM each time.

For `Cc1cc(NCCCCCCCCCC[n+]2c(C)cc(N)c3ccccc32)c2ccccc2n1`, the TGI was 7.43 µM with CCRF-CEM leukemia; 0.695 µM in the test with SK-MEL-5 melanoma; 30.1 µM in the test with HOP-62 NSCLC; 17.3 µM with IGROV1 ovarian; above 39 µM in the test on SF-268 CNS.

As to `CC1(C)CCCCCCC2OC2CCCCCC(C)(C)C1=O` (centres undefined), the TGI is above 69.4 µM in the test with CCRF-CEM leukemia; 50.2 µM in the test with SK-MEL-5 melanoma; above 100 µM with HOP-62 NSCLC; above 100 µM in the test with IGROV1 ovarian; above 100 µM in the test on SF-268 CNS.

As to `CCOC(=O)C1C(c2ccc(OC)cc2)c2c([nH][nH]c2=O)CC1(O)OCC` (centres undefined), the TGI in the test on CCRF-CEM leukemia, in the test on SK-MEL-5 melanoma, with HOP-62 NSCLC, with IGROV1 ovarian and with SF-268 CNS was above 100 µM each time.

With `CCCCCCCCC/C=C1\CC(CO)(COC(=O)C2CCCCC2)OC1=O` (centres undefined), the TGI in the test with CCRF-CEM leukemia was determined as 63.2 µM; in the test with SK-MEL-5 melanoma, 27.3 µM; with HOP-62 NSCLC, 27.9 µM; in the test with IGROV1 ovarian it was 37.7 µM; in the test on SF-268 CNS, 46.7 µM.

`COc1ccc(/C=C2\CCCCCC2=O)cc1`: the TGI in the test with CCRF-CEM leukemia, with SK-MEL-5 melanoma, in the test with HOP-62 NSCLC, in the test with IGROV1 ovarian and in the test with SF-268 CNS was above 100 µM in each case.

For the compound `NC(=O)C(c1ccccc1)N1OC2C(=O)N(c3cccc4ccccc34)C(=O)C2C1c1c2ccccc2c(Cl)c2ccccc12` (centres undefined), the TGI in the test on SK-MEL-5 melanoma was found to be 11.2 µM; with HOP-62 NSCLC, 27.8 µM; in the test with IGROV1 ovarian it was 39.8 µM; with SF-268 CNS, 25.1 µM.

In the case of `COC(=O)c1ccccc1/C=C1\Cc2cc(C)cc(C)c2C1=O`, the TGI in the test with CCRF-CEM leukemia, with SK-MEL-5 melanoma, with HOP-62 NSCLC, in the test with IGROV1 ovarian and with SF-268 CNS was above 100 µM each time.

For the compound `[O-][n+]1onc(-c2ccccc2)c1CN1CCOCC1`, the TGI with CCRF-CEM leukemia, with SK-MEL-5 melanoma, in the test with HOP-62 NSCLC, in the test on IGROV1 ovarian and in the test on SF-268 CNS was above 100 µM throughout.

Consider `CN(/N=C/c1ccccn1)C1=NCCCCN1`, for which the TGI in the test with CCRF-CEM leukemia, with SK-MEL-5 melanoma, in the test with HOP-62 NSCLC, with IGROV1 ovarian and with SF-268 CNS was above 100 µM in each case.

With `COc1cc(C2c3cc4c(cc3OC(Nc3ccccc3)C2C)OCO4)cc(OC)c1OC` (centres undefined), the TGI in the test with CCRF-CEM leukemia was above 19.9 µM; in the test on HOP-62 NSCLC, 9.89 µM; in the test with IGROV1 ovarian it was above 100 µM; in the test on SF-268 CNS, above 100 µM.

With `O=C(C1C(c2ccccc2)N1C(c1ccccc1)c1ccccc1)C1C(c2ccccc2)N1C(c1ccccc1)c1ccccc1` (centres undefined), the TGI in the test with CCRF-CEM leukemia was 22.9 µM; in the test on SK-MEL-5 melanoma, 49.8 µM; in the test on HOP-62 NSCLC, above 100 µM; in the test with SF-268 CNS, 67.5 µM.

On to `Cc1nn(-c2ccccc2)c2[nH]c(=S)cnc12`, for which the TGI in the test on CCRF-CEM leukemia, in the test on HOP-62 NSCLC, in the test on IGROV1 ovarian and in the test on SF-268 CNS was above 100 µM in each case.

`COC(=O)C(=O)C(C(=O)C(=O)Nc1ccccc1C(C)=O)c1nc2ccc(C(=O)c3ccccc3)cc2[nH]c1=O` (centres undefined): the TGI in the test with SK-MEL-5 melanoma, in the test with HOP-62 NSCLC, in the test with IGROV1 ovarian and in the test with SF-268 CNS was above 100 µM in each case.

In the case of `O=[N+]([O-])c1ccc2[nH]ncc2c1Cl`, the TGI was above 100 µM with CCRF-CEM leukemia, 27 µM in the test on SK-MEL-5 melanoma, above 100 µM in the test with HOP-62 NSCLC and 39.1 µM in the test on IGROV1 ovarian.

Consider `Cc1ccc(Nc2nc(N)nc3c2ncn3C2OC(CO)C(O)C2O)cc1` (centres undefined), for which the TGI in the test on CCRF-CEM leukemia, with SK-MEL-5 melanoma, with HOP-62 NSCLC and in the test on IGROV1 ovarian was above 100 µM each time.

Turning to `Cn1c(NS(=O)(=O)c2ccccc2)nc2ccccc21`, the TGI in the test with CCRF-CEM leukemia, in the test with SK-MEL-5 melanoma, with IGROV1 ovarian and with SF-268 CNS was above 100 µM in each case.

As to `N#CC(Nc1ccccc1)c1ccc(C(C#N)Nc2ccccc2)cc1` (centres undefined), the TGI in the test with CCRF-CEM leukemia is 48 µM; in the test with SK-MEL-5 melanoma, above 100 µM; in the test with IGROV1 ovarian it was above 100 µM; with SF-268 CNS, above 100 µM.

With `NC1=NN(c2ccccc2)C2(O)c3ccncc3C3=NN(c4ccccc4)C(=O)C132` (centres undefined), the TGI in the test with SK-MEL-5 melanoma, in the test on IGROV1 ovarian and in the test with SF-268 CNS was above 100 µM in each case.
